Reference: ChEMBL document CHEMBL1201862, “PubChem BioAssay data set” (2004)
The source made the active and inactive calls.

How the values were obtained:
[1] = human group III sPLA2 inhibitors, dose response, biochemical, QFRET, IC50 (AID 743457);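 further: green fluorescence rise as the enzyme cleaves BODIPY PC-A2 in liposomes; potency for inhibition of the enzyme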
[2] = Luminescence Cell-Based Dose Retest to Confirm Inhibitors of Cancer Stem Cells. [Related pubchem assays (depositor defined):AID2717, AID2721]; format: functional; conditions: Homo sapiens
[3] = target: Eukaryotic translation initiation factor 4E (Mus musculus, UniProt P63073); assay: eIF4E–eIF4G protein interaction inhibitors, dose response, biochemical, TR-FRET (AID 855); format: functional;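 further: potency for disrupting eIF4E binding to eIF4GI seen as loss of FRET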
[4] = target: RNA-editing ligase 1, mitochondrial (Trypanosoma brucei brucei, UniProt P86926); assay: TbREL1 ligase inhibitors, dose response, biochemical, fluorescence, Trypanosoma brucei (AID 1117295); format: functional
[5] = target: Oxysterols receptor LXR-beta (Homo sapiens, UniProt P55055); format: functional, cell-based;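 further: Cell-based luminescence dose-response assay of agonist activity at LXR, run as a confirmatory counterscreen to a daf-12 agonist screen; HEK293 cells with Gal4-LXR fusion and GAL4-driven luciferase reporter; agonist potency from rising luciferase signal of a Gal4-LXR reporter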
cells [6] = assay: cells
[7] = target: Mitogen-activated protein kinase 10 (Homo sapiens, UniProt P53779); assay: Dose response biochemical screening assay for inhibitors of c-Jun N-Terminal Kinase 3 (JNK3). [Related pubchem assays: 746 ]
Major prion protein = Major prion protein (Homo sapiens, UniProt P04156); format: functional, cell-based
cells [8] = assay: cells; remark: listed apart in the source
[9] = inhibitors of Vif binding to APOBEC3G peptide, primary screen, biochemical, TR-FRET, GST-Vif 1-94, biotin-A3G peptide, dose response retest (AID 1117319); format: functional;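 further: TR-FRET signal of purified GST-Vif binding a biotinylated A3G peptide; inhibitors lower the FRET signal by blocking Vif and A3G binding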
[10] = HEK293T cytotoxicity, dose response, cytotoxicity control for miR-122 modulator project, cell-based, inhibitor set, cherry-pick, set 2 (AID 720697); format: functional
cells [11] = format: functional, cell-based
[12] = Luminescent dose response cell-based high throughput screening assay for inhibitors of the Janus kinase 2 mutant JAK2V617F. [Related pubchem assays: 1446 (Primary screen.), 1521 (Confirmation assay.), 1486 (Counter screen.)]; format: functional
[13] = target: T1, Heat shock factor protein 1 (Mus musculus, UniProt P38532); assay: HSF1 potentiators in luciferase reporter cells, confirmation, cell-based, NIH3T3, luminescence, dose retest (AID 435004); format: functional;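 further: stress induced by proteasome inhibitor MG132 added 30 min after compound; luciferase reporter driven by HSF1 response element in NIH3T3 cells; actives raise luminescence as potentiators of the MG132 stress response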
T1 sequence (P38532 whole entry): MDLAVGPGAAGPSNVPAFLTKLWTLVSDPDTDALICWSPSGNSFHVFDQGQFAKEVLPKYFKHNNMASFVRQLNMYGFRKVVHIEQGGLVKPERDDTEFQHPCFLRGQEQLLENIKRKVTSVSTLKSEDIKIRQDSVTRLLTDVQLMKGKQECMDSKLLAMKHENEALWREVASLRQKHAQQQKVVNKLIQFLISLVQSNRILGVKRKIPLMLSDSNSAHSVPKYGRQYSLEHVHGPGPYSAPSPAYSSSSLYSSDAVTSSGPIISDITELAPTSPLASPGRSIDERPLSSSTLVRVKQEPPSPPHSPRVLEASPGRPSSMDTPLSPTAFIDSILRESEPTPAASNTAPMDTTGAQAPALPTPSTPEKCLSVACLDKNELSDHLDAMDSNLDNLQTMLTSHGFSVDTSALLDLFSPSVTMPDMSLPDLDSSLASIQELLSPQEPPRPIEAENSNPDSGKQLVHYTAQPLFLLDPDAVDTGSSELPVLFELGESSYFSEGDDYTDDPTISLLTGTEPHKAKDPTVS

fMet-Leu-Phe receptor = target: T2, fMet-Leu-Phe receptor (Homo sapiens, UniProt P21462); assay: FPR ligands, dose response (AID 519); format: functional
T2 sequence (P21462 whole entry): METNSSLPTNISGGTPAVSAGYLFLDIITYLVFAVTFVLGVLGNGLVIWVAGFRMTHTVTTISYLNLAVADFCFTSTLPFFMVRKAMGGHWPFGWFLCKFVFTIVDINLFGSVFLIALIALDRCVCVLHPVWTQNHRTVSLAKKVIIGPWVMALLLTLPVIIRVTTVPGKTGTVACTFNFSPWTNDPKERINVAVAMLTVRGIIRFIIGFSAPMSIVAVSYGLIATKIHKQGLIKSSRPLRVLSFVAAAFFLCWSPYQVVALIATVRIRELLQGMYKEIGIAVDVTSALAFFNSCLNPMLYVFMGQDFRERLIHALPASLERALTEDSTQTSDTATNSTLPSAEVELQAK

[14] = target: Disintegrin and metalloproteinase domain-containing protein 17 (Homo sapiens, UniProt P78536); assay: exosite inhibitors of ADAM17, dose response, biochemical (AID 743260)
[15] = ADAM10 protease inhibitors, dose response, selectivity assay for ADAM17 exosite inhibitor project, biochemical, FRET peptide substrate, recombinant human ADAM10 (AID 743259);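 further: ADAM10 enzyme cleaving a FRET peptide substrate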

CC(C)Oc1ccc(CC(=O)NN=C(S)Nc2ccccc2)cc1
IC50 [1]: > 122 µM (inactive)

COc1ccc(CN2C(=O)c3cccnc3C2Nc2cc(Cl)ccc2OC)cc1 (stereo unspecified)
AC50 [2]: > 195 µM (inactive) | IC50 [3]: 14.4 µM (active) | IC50 [4]: 16.1 µM (inactive)

Fc1cccc(Cl)c1/C=C/c1cnc2ccccc2n1
EC50 [5]: > 67.5 µM (inactive) | EC50 (cells [6]): > 67.5 µM (inactive)

Cc1nn(C(C)C(=O)O)c(=O)c2c1sc1ccccc12 (stereo unspecified)
IC50 [7]: > 93.1 µM (not active) | IC50 (Major prion protein): 8.45 µM (active) | IC50 (cells [8]): > 138 µM (inactive)

CCCN1Cc2cccc(C(=O)NCc3ccccc3)c2C1=O
IC50 [7]: 57.8 µM (not active)

CCC1S/C(=C(\C#N)C(=O)NCc2ccco2)N(c2ccc(F)cc2)C1=O (stereo unspecified)
IC50 [9]: > 100 µM (active)

CCCCN1C=C(C(=O)OC)C(c2ccccc2C(F)(F)F)C(C(=O)OC)=C1
AC50 [10]: 8.63 µM (active)

Cc1c(Cl)c(C(=O)NN=C(S)Nc2ccccc2)nn1C
IC50 [1]: > 122 µM (inactive)

CCc1nnc(NS(=O)(=O)c2ccc(N/C=C3/C(=O)NC(=O)N(c4ccccc4)C3=O)cc2)s1
IC50 (cells [11]): 64.4 µM (inactive)

Cc1cccc(OCC(=O)Nc2cc(C)ccc2O)c1
IC50 [12]: 0.676 µM (active) | EC50 [13]: 4.61 µM (active) | Ki (fMet-Leu-Phe receptor): > 66.7 µM (inactive)

Cc1cc2c(cc1C)NP(=S)(c1ccccc1)N2
EC50 [5]: > 67.6 µM (inactive) | EC50 (cells [6]): > 67.6 µM (inactive)

C=CCC[C@@H](Cc1ccc(F)cc1)C(=O)OC[C@@H]1CCCN1C(=O)[C@H](CC=C)CC(=O)N[C@H](CO)Cc1ccccc1
IC50 [14]: > 69.5 µM (inactive) | IC50 [15]: 15.2 µM (inactive)
